This note sets out measurements from patent US10945978B2, “Treatment and diagnosis of melanoma” (The Rockefeller University, priority 2012, dated 2021).

Structures can show the parent of a compound that is named as a salt.

Assay [1] has as its system ApoE. Description: ApoE expression by qRT-PCR in human melanoma cells. It is filed as cell-based. The following applies: parental MeWo cells; GW3965 48 hours. How it is done: Total RNA was extracted from various cell lines using the miRvana kit (AM1560, Applied Biosystems, Austin, Tex.). The expression levels of mature miRNAs were quantified using the Taqman miRNA expression assay (4427975-0002228, Applied Biosystems). RNU44 was used as an endogenous control for normalization. For mRNA expression analyses, 600 ng of total RNA was reverse transcribed using the cDNA First-Strand Synthesis Kit (18080-051, Invitrogen), and roughly 200 ng of the resulting cDNA was then mixed with SYBR green PCR Master Mix (4309155, Applied Biosystems) and the appropriate primers. Each reaction was performed in quadruplicate, and mRNA expression was quantified by performing real-time PCR amplification using an ABI Prism 7900HT Real-Time PCR System (Applied Biosystems). GAPDH was used as an endogenous control for normalization. The following primers were used: […]
RNA was extracted from whole cell lysates using the Total RNA Purification Kit (17200, Norgen, Thorold, Canada). 600 ng of total RNA was then reverse transcribed into cDNA using the cDNA First-Strand Synthesis Kit (18080-051, Invitrogen), and quantitative real-time PCR amplification was performed as previously described (Pencheva et al., 2012) using an ABI Prism 7900HT Real-Time PCR System (Applied Biosystems, Austin, Tex.). Each PCR reaction was carried out in quadruplicates. Gene expression was normalized to GAPDH, which was used as an endogenous control.
For every sample, 600 ng of RNA was reverse transcribed into cDNA using the cDNA First-Strand Synthesis kit (Invitrogen). Approximately 200 ng of cDNA was mixed with SYBR® green PCR Master Mix and the corresponding forward and reverse primers specific for detection of human ApoE. Each reaction was carried out in quadruplicates, and ApoE mRNA expression levels were measured by quantitative real-time PCR amplification using an ABI Prism 7900HT Real-Time PCR System (Applied Biosystems). The relative ApoE expression was determined using the ΔΔCt method. GAPDH was used as an endogenous control for normalization purposes.

The subject of assay [2] is SK-Mel-239 vemurafenib-resistant clone cells. Description: SK-Mel-239 vemurafenib-resistant tumors in NOD Scid gamma mice. Type of assay: in vivo, human. As to conditions: GW3965 diet 100 mg/kg.
Assay [3] concerns MeWo human melanoma cells. Description: Subcutaneous MeWo tumor growth in immunocompromised mice. It is filed as in vivo. As to conditions: oral, GW3965-supplemented diet.
Method: Animals were palpated weekly for tumor formation, after which sizeable tumors were measured twice a week. Tumor volume was calculated as (small diameter)^2×(large diameter)/2.
For assay [4], the system named is MeWo cells. Description: Orthotopic metastasis assay (lung colonization after tumor excision). It is filed as in vivo, human. The following applies: oral, 100 mg/kg for 1 month post-tumor excision. On the procedure:
To determine the effect of GW3965 treatment on lung colonization by melanoma cells dissociated from an orthotopic site, 1×10^6 MeWo cells expressing a luciferase reporter were subcutaneously injected into both lower flanks of NOD Scid mice. Upon the formation of tumors measuring ˜300 mm^3 in volume, the tumors were excised and the mice were randomly assigned to a control diet or a GW3965-supplemented diet (100 mg/kg) treatment. One month after tumor excision, the lungs were extracted and lung colonization was measured by ex vivo bioluminescence imaging. To histologically confirm the extent of melanoma lung colonization, lungs were then fixed in 4% PFA overnight, paraffin-embedded, section into […] increments and stained for human vimentin (VP-V684, Vector Laboratories).

Assay [5] relates to MeWo brain-metastatic derivatives. Description: Brain metastasis assay, intracardiac injection into athymic nude mice. It is filed as in vivo, human. The following applies: oral, GW3965 diet 100 mg/kg from day 0. On the procedure: Melanoma cells used for in vivo metastasis assays were transduced with a stably expressed retroviral construct encoding a luciferase reporter gene (Ponomarev et al., 2004), allowing us to monitor the in vivo progression of melanoma cells by bioluminescence imaging. The following numbers of melanoma cells, resuspended in 100 μL of PBS, were injected intravenously via the tail-vein: 4×10^4 MeWo cells, 2.5×10^5 HT-144 cells, 2×10^5 SK-Mel-334.2 cells, 5×10^4B16F10 cells, and 1×10^5 YUMM cells. The MeWo, HT-144, and SK-Mel-334.2 cells were injected into 6-8 week-old sex-matched NOD scid mice, while the B16F10 and YUMM cells were injected into 6-8 week-old sex-matched C57BL/6 mice. In all experiments assessing at the effects of GW3965 on metastasis formation, mice were pre-treated on a control diet or a GW3965-supplemented diet (20 mg/kg) for 10 days. To assess the effect of GW3965 treatment on brain metastasis, 1×10^5 MeWo brain-metastatic derivatives were injected intracardially into athymic nude mice. Immediately following injection, mice were randomly assigned to a control diet or GW3965-supplemented diet (100 mg/kg). […]

Assay [6] has as its system SK-Mel-334.2 primary human melanoma line. Description: Subcutaneous SK-Mel-334.2 tumor growth in immunocompromised mice. The following applies: oral, GW3965-supplemented diet. It is filed as in vivo.
Assay [7] concerns breast cancer, renal cell cancer, and pancreatic cancer cell lines. Description: Matrigel invasion of breast, renal cell and pancreatic cancer cell lines with recombinant ApoE. It is filed as cell-based, human. As to conditions: recombinant ApoE3 100 μg/mL vs BSA. On the procedure:
The ability of cancer cells to invade through matrigel in vitro was tested by using a trans-well matrigel invasion chamber system (354480, BD Biosciences). Various cancer cell lines were serum-starved overnight in media containing 0.2% FBS. The following day, invasion chambers were pre-equilibrated prior to the assay by adding 0.5 mL of starvation media to the top and bottom wells. Meanwhile, cancer cells were trypsinized and viable cells were counted using the trypan blue dead cell exclusion dye. Cancer cells were then resuspended at a concentration of 1×10^5 cells/1 mL starvation media, and 0.5 mL of cell suspension, containing 5×10^4 cells, was seeded into each trans-well. To determine the effect of recombinant ApoE on cancer cell invasion, human recombinant ApoE3 (4696, Biovision) or BSA were added to each trans-well at 100 μg/mL at the start of the assay. The invasion assay was allowed to proceed for 24 hours at 37° C. […] Following fixation, the inserts were washed in PBS and then cut out and mounted onto slides using VectaShield mounting medium containing DAPI nuclear stain (H-1000, Vector Laboratories). The basal side of each insert was imaged using an inverted fluorescence microscope (Zeiss Axiovert 40 CFL) at 5× magnification, and the number of DAPI-positive cells was quantified using ImageJ.

`O=C(O)Cc1cccc(OCCCN(Cc2cccc(C(F)(F)F)c2Cl)CC(c2ccccc2)c2ccccc2)c1` [GW3965 2, 3-[3-[N-(2-Chloro-3-trifluoromethylbenzyl)-(2,2-diphenylethyl)amino]propyloxy] phenylacetic acid hydrochloride]: the “expression of ApoE” value in assay [1] is given as “increased”. Besides, in assay [2], the “suppression of tumor growth” value amounted to 72% and the “survival of mice bearing vemurafenib-resistant melanoma burden” value was “significantly prolonged”. The compound also returned a tumor growth inhibition in assay [3] of 70%. Also, in assay [4], the “inhibition of lung colonization by disseminated melanoma cells” value amounted to 17 fold. Moreover, the “systemic dissemination and brain colonization” value in assay [5] is listed as “inhibited”. The same compound displayed a tumor growth inhibition in assay [6] of 73%.

For the compound “recombinant human ApoE: recombinant human ApoE3 (4696, BioVision)”, in assay [7], the tumor cell invasion result is on record as “inhibited”.
